Reference: US20250313808A1, “LIQUID CRYSTAL SCAFFOLDS AND USE THEREOF FOR ORGANOID, SPHEROID, AND 3D CELLAGGREGATE MANUFACTURING” (THE REGENTS OF THE UNIVERSITY OF CALIFORNIA, priority 2022, published 2025)

Experiment: Cell growth on CLC versus other substrates (FIG. 13)
Assay type: cell-based
Conditions: CLC compared to PDMS, agarose or cholesteryl oleyl carbonate substrates
Description: Varying ratio of mesogen were weighted to generate a scaffold with desirable phase transition. The mesogens were heated to the melt phase of about 80° C. and then pipetted onto surfaces to create CLC-coated substrates. The substrates were then placed in well plates cell culture media and cells were added to the substrates using traditional cell seeding techniques. The scaffold directed cellular organization once the scaffold was placed in the cell culture incubator with seeded cells on the surface.

Structure (SMILES): CCCCCCCC/C=C\CCCCCCCCOC(=O)O[C@H]1CC[C@@]2(C)C(=CC[C@H]3[C@@H]4CC[C@H]([C@H](C)CCCC(C)C)[C@@]4(C)CC[C@@H]32)C1 [cholesteryl oleyl carbonate]
- cell growth on substrate: cell growth was only observed on CLC substrate
